Test results from patent US8822500B2, “Tyrosine kinase inhibitors” (Chembridge Corporation, priority 2008, dated 2014).
Where two headings read alike, the source gives them in different places.

What was measured:
[1] = molecular target: ALK (Homo sapiens (Human), UniProt Q9UM73); test: In vitro kinase activity assay (LANCE TR-FRET); assay type: biochemical;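 also: kinase reactions with ATP and a poly-GT peptide substrate, phosphorylated product read by time-resolved FRET, 11-point curve from 10^−11 to 10^−5 M, DMSO as negative control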
Chain of ALK (Q9UM73 19-1620): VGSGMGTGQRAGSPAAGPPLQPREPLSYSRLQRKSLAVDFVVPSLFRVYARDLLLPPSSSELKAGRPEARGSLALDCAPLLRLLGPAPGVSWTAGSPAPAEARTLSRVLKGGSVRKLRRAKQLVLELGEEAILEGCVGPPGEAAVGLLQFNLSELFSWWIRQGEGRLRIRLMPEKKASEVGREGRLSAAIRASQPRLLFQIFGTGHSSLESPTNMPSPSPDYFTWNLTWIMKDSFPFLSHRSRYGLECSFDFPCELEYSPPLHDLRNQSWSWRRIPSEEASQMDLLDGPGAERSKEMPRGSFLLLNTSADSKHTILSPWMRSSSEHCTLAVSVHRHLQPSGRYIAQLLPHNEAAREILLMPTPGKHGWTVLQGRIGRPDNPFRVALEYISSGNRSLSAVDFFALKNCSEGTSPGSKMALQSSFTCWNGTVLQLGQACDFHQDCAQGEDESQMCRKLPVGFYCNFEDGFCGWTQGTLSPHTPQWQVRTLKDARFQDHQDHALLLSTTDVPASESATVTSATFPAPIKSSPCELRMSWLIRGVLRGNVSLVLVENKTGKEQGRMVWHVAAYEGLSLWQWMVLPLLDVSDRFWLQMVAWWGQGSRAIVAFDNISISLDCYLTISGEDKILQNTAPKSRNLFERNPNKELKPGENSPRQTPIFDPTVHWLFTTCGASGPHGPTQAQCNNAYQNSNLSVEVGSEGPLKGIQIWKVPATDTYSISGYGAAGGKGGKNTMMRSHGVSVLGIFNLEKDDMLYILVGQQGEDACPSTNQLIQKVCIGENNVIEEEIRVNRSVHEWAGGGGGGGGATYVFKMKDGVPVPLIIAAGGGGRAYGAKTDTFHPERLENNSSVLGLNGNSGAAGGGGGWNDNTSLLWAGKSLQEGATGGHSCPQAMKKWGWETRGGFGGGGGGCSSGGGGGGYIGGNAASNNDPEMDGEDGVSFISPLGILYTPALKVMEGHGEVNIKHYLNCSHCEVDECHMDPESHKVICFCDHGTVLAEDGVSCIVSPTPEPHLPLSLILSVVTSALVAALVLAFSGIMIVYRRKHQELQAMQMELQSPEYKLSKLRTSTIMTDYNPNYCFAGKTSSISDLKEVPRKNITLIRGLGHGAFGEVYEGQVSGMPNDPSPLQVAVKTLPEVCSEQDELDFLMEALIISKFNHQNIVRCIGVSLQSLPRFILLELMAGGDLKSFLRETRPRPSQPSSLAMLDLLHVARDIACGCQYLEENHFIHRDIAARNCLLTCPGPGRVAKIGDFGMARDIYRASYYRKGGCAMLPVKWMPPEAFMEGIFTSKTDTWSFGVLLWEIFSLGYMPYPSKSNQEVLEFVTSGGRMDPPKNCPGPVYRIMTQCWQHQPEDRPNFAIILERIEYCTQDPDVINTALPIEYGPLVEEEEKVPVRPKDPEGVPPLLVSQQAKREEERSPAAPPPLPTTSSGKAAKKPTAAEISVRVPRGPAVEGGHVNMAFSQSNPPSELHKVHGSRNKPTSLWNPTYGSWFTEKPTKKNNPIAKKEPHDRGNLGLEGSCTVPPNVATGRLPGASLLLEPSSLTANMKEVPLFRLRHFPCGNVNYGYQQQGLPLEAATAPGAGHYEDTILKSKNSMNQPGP

[2] = molecular target: TrkA (Homo sapiens (Human), UniProt P04629); test: In vitro kinase activity assay (LANCE TR-FRET); assay type: biochemical;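 also: kinase reaction with poly-GT peptide substrate and ATP, phosphorylated product quantified by time-resolved FRET, eleven-point dose curves from 10^−11 to 10^−5 M in triplicate, DMSO as negative control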
Chain of TrkA (P04629 33-796): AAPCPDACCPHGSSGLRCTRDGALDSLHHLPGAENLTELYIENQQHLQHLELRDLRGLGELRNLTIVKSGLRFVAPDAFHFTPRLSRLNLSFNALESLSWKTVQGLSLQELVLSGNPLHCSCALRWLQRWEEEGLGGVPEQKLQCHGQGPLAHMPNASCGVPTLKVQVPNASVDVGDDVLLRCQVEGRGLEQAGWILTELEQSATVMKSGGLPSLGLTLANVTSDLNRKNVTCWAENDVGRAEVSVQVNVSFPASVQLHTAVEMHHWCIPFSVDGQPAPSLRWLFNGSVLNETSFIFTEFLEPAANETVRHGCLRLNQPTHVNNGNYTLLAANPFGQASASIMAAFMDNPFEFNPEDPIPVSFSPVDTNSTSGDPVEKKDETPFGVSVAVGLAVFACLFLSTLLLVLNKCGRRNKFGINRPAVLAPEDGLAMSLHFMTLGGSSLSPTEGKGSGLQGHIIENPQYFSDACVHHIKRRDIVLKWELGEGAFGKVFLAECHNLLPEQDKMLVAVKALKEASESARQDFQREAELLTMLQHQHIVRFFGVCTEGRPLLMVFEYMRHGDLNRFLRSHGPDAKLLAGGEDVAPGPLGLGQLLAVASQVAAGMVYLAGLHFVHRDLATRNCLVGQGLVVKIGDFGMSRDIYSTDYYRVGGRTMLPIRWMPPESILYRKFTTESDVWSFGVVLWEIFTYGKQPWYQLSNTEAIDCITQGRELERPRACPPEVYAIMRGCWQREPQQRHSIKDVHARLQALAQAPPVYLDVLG

[3] = molecular target: ROS (Homo sapiens (Human), UniProt P08922); test: In vitro kinase activity assay (LANCE TR-FRET); assay type: biochemical
[4] = molecular target: RET (Homo sapiens (Human), UniProt P07949); test: In vitro kinase activity assay (LANCE TR-FRET); assay type: biochemical
[5] = Caco-2 cell permeation study; assay type: in vitro ADME; settings: human; for efflux ratio at 2 h, 10 μM: Caco-2, Caco-2; for Papp A→B at 2 h, 10 μM: Caco-2, pH 6.5, 10 μM, apical pH 6.5, 2 h; for Papp B→A at 2 h, 10 μM: Caco-2, pH 7.4, 10 μM, basolateral pH 7.4, 2 h;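 as to all read-outs here: Caco-2 monolayers grown for 21–28 days with integrity confirmed by TEER, apical buffer HBSS with MES, basolateral buffer HBSS with HEPES, compound levels quantified by LC/MS/MS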
[6] = tested on: Caco-2 cells; test: Caco-2 cell permeation study; assay type: in vitro ADME; settings: for Papp (10−6 cm/sec) A to B / Papp (10−6 cm/sec) B to A: 10 μM; for Papp (10−6 cm/sec) A to B: apical pH 6.5, 2 h; for Papp (10−6 cm/sec) B to A: basolateral pH 7.4, 2 h; for Efflux Ratio: Caco-2;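 as to all read-outs here: Caco-2 monolayers grown for 21–28 days with integrity confirmed by TEER, apical buffer HBSS with MES, basolateral buffer HBSS with HEPES, compound levels quantified by LC/MS/MS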
[7] = Rat pharmacokinetics / bioavailability; assay type: in vivo
[8] = in vitro; settings: human, microsomes; for microsomal CLint at 0.5 μM: pH 7.4, Human LM-P1 CL (ul/min/mg); for half-life at 0.5 μM: pH 7.4, Human LM-P1 Half-life (min)
[9] = in vitro; settings: rat, microsomes; for half-life at 0.5 μM: pH 7.4; for microsomal CLint at 0.5 μM: pH 7.4, Rat LM-P1 CL (ul/min/mg)
[10] = molecular target: cMET (Homo sapiens (Human), UniProt P08581); test: In vitro kinase activity assay (LANCE TR-FRET); assay type: biochemical
Chain of cMET (P08581 25-1390): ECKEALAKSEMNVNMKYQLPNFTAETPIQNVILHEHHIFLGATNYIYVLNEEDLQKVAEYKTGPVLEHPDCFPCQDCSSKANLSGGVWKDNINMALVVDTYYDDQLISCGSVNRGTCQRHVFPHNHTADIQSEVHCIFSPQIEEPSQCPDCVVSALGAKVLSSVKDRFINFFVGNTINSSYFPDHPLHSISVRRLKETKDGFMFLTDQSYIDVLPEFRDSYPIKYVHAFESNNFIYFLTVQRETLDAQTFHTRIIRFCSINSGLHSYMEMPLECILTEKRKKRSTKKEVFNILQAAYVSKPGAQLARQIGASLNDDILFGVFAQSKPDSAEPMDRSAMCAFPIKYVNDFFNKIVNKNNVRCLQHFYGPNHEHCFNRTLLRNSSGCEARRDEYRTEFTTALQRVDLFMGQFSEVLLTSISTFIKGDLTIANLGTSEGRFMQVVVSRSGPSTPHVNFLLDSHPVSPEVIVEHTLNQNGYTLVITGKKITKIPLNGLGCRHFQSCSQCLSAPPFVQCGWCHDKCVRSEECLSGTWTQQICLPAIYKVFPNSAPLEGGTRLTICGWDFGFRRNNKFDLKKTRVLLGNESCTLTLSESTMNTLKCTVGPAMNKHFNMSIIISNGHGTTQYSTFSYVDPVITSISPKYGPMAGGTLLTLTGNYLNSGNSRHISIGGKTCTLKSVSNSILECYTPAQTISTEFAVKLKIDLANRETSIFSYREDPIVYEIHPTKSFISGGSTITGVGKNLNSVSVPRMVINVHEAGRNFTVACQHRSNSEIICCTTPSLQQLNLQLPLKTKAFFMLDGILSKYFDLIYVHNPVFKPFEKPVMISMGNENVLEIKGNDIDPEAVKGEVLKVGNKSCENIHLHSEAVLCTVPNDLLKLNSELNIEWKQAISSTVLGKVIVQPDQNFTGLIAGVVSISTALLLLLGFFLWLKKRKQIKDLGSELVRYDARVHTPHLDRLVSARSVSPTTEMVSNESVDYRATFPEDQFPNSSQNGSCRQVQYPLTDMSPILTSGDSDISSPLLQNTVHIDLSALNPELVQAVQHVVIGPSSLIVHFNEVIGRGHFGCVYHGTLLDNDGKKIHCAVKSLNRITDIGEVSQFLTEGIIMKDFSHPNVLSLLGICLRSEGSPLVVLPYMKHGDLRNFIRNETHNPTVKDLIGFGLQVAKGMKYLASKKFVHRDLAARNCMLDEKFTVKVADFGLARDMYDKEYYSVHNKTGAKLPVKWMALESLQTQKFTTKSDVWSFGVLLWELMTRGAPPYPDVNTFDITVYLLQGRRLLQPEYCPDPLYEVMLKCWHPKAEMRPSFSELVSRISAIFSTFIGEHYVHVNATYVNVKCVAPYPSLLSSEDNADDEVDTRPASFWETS

[11] = tested on: K299 lymphoma cells; test: Cellular assay, 3 day cell viability (WST-1); assay type: cell-based; settings: 72 h, 3 days
[12] = Metabolic stability, Phase I microsome reactions; assay type: in vitro ADME, mouse; settings: 1.0 mg/ml microsomes; for microsomal CLint at 0.5 μM / half-life at 0.5 μM: mouse, liver microsomes, pH 7.4, Phase I only; for microsomal CLint at 0.5 μM: read-out: Mouse LM-P1 CL; for half-life at 0.5 μM: read-out: Mouse LM-P1 Half-life
[13] = molecular target: hERG (human ether-a-go-go related gene) potassium channel (Homo sapiens (Human), UniProt Q12809); test: hERG potassium channel current, automated patch clamp (PatchXpress 7000A);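 also: Four-point series of 0.3, 3, 10 and 30 µM, two cells recorded per concentration, 5 min exposure at each level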
Chain of hERG (human ether-a-go-go related gene) potassium channel (Q12809 whole entry): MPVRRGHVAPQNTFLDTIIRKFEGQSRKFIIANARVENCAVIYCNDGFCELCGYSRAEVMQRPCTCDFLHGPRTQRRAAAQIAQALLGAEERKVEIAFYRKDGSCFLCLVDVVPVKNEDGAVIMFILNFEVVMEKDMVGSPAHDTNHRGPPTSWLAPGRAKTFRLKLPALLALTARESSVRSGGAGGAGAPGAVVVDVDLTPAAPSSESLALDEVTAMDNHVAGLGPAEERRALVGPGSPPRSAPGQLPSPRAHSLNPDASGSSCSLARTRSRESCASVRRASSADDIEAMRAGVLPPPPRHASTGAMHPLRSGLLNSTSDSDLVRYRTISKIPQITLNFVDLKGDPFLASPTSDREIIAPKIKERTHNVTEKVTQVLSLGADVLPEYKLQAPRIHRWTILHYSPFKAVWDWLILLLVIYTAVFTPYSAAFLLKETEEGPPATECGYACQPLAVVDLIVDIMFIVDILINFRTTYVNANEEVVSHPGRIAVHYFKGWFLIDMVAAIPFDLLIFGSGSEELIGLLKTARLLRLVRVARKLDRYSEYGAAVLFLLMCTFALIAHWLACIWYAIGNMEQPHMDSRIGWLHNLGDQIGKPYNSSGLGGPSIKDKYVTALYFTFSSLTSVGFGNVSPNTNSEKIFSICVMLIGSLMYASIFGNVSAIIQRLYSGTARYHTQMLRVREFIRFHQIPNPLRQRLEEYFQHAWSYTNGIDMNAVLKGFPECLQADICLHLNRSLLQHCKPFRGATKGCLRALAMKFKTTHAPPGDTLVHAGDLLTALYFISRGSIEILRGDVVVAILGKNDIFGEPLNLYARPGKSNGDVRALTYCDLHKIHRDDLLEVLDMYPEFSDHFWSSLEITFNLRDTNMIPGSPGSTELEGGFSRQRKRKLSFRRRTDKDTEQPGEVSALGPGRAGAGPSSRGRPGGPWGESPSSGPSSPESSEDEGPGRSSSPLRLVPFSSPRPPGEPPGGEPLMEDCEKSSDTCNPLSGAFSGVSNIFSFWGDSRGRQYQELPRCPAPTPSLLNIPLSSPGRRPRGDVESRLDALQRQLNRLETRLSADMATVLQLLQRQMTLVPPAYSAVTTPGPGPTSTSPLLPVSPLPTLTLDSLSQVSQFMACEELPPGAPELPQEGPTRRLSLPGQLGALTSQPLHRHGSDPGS

[14] = tested on: U937 lymphoma cells; test: Cellular assay, 3 day cell viability (WST-1); assay type: cell-based; settings: Homo sapiens, U-937, 72 h, 3 days, WST-1
[15] = tested on: SUDHL-1 lymphoma cells; test: Cellular assay, 3 day cell viability (WST-1); assay type: cell-based; settings: Homo sapiens, SU-DHL-1, 72 h, 3 days, WST-1

Row | Structure (SMILES) | IC50 ([1]; read-out: ALK (nM) IC50) [nM] | IC50 ([1]; read-out: GTx-ALK IC50) [nM] | IC50 ([2]; read-out: GTx-TrKA IC50) [nM] | IC50 ([2]; read-out: TrkA (nM) IC50) [nM] | IC50 ([3]; read-out: GTx-ROS IC50) [nM] | IC50 ([3]; read-out: ROS (nM) IC50) [nM] | IC50 ([4]; read-out: GTx-RET IC50) [nM] | IC50 ([4]; read-out: RET (nM) IC50) [nM] | efflux ratio at 2 h, 10 μM [5] | Papp A→B at 2 h, 10 μM [5] [×10⁻⁶ cm/s] | Papp B→A at 2 h, 10 μM [5] [×10⁻⁶ cm/s] | microsomal CLint at 0.5 μM [8] [µL/min/mg] | half-life at 0.5 μM [8] [min] | half-life at 0.5 μM [9] [min] | microsomal CLint at 0.5 μM [9] [µL/min/mg] | IC50 ([1]; read-out: ALK IC50) [nM] | IC50 ([2]; read-out: TrKA IC50) [nM] | IC50 [10] [nM] | microsomal CLint at 0.5 μM [12] [µL/min/mg] | half-life at 0.5 μM [12] [min] | other results
1 | CC(Cc1c(F)c(F)cc(F)c1F)Nc1cc[nH]c(=O)c1-c1nc2cc3c(cc2[nH]1)C(=O)N(C)C3=O (stereo not drawn) [Compound 41, 2-(4-(1-(2,3,5,6-Tetrafluorophenyl)propan-2-ylamino)-2-oxo-1,2-dihydropyridin-3-yl)-6-methylimidazo[4,5-f]isoindole-5,7(1H,6H)-dione] | > 10000 | > 10000 | > 10000 | > 10000 | 5 | 4.53 | > 10000 | > 10000 | – | – | – | – | – | – | – | – | – | – | – | – | –
2 | CC(Cc1cc(F)ccc1F)Nc1cc[nH]c(=O)c1-c1nc2cc3c(cc2[nH]1)CNC3=O (stereo not drawn) [Compound 53] | 34.1 | – | – | 7.81 | – | 1.88 | – | 16.9 | 6.6 | 1.25 | 8.24 | 25.3 | 27.4 | 8.68 | 78 | – | – | – | – | – | Papp (10−6 cm/sec) A to B [6]: 0.76 10−6 cm/sec; Papp (10−6 cm/sec) B to A [6]: 7.41 10−6 cm/sec; Efflux Ratio [6]: 10.1; IV_AUC0-1440 Rat 10 mpk ([7]; 10 mg/kg I.V.): 531 µg·min/mL; PO_AUC0-1440 Rat 10 mpk ([7]; 10 mg/kg P.O.): 2.13 µg·min/mL; bioavailability ([7]; male, Sprague-Dawley, plasma, po, 10 mg/kg P.O., read-out: Rat F %): 0.402%
3 | Cc1c2c(cc3[nH]c(-c4c(NC(C)Cc5c(F)c(F)cc(F)c5F)cc[nH]c4=O)nc13)C(=O)N(C1CCN(C)CC1)C2 (stereo not drawn) [Compound 24A, 8-Methyl-6-(1-methylpiperidin-4-yl)-2-(2-oxo-4-(1-(2,3,5,6-tetrafluorophenyl)propan-2-ylamino)-1,2-dihydropyridin-3-yl)-6,7-dihydroimidazo[4,5-f]isoindol-5(3H)-one] | 14.6 | – | – | 5.99 | – | 2.37 | – | 11.1 | – | – | – | – | – | – | – | – | – | – | – | – | –
4 | C[C@@H](Cc1c(F)c(F)cc(F)c1F)Nc1cc[nH]c(=O)c1-c1nc2cc3c(cc2[nH]1)C(=O)N(c1cccnc1)C3=O [Compound 12, (S)-2-(2-oxo-4-((1-(2,3,5,6-tetrafluorophenyl)propan-2-yl)amino)-1,2-dihydropyridin-3-yl)-6-(pyridin-3-yl)imidazo[4,5-f]isoindole-5,7(1H,6H)-dione] | 47.3 | – | – | 20.4 | – | – | – | – | – | < 0.2 | < 0.2 | < 5.8 | > 120 | > 120 | < 5.8 | 47 | 20 | > 10000 | < 5.8 | > 120 | IC50 ([11]; read-out: K299 IC50): > 10000 nM; IC50 [13]: > 3000 nM
5 | CC(Cc1c(F)c(F)cc(F)c1F)Nc1cc[nH]c(=O)c1-c1nc2cc3c(cc2n1C)C(=O)N(C)C3 (stereo not drawn) [Compound 43a, Cis-1,6-Dimethyl-2(2-oxo-4-(1-(2,3,5,6-tetrafluorophenyl)propan-2-ylamino)-1,2-dihydropyridin-3-yl)-6,7-dihydroimidazo[4,5-J]isoindol-5(1H)-one] | > 10000 | > 10000 | 6510 | 6510 | 1120 | 1200 | > 10000 | > 10000 | – | – | – | – | – | – | – | – | – | – | – | – | –
6 | CC(Cc1cc(F)ccc1F)Nc1cc[nH]c(=O)c1-c1nc2cc3c(cc2[nH]1)C(=O)N(CCN(C)C)C3 (racemic) [Compound 18, 2-(4-(1-(2,5-Difluorophenyl)propan-2-ylamino)-2-oxo-1,2-dihydropyridin-3-yl)-6-(2-(dimethylamino)ethyl)-6,7-dihydroimidazo[4,5-f]isoindole-5(1H)-one] | 9.16 | – | – | 4.33 | – | 0.688 | – | 13.1 | – | – | – | < 5.8 | > 120 | 20.6 | 33.3 | 9 | 4 | 1000 to 3000 | 29.4 | 23.6 | IC50 ([11]; read-out: K299 IC50): 265 nM; IC50 ([14]; read-out: U937 IC50): > 3000 nM; IC50 ([15]; read-out: SUDHL-1 IC50): 172 nM; IC50 [13]: 5420 nM
7 | CC(Cc1cc(F)ccc1F)Nc1cc[nH]c(=O)c1-c1nc2cc3c(cc2[nH]1)CN(C)C3=O (stereo not drawn) [Compound 33, 2-(4-(1-(2,5-Difluorophenyl)propan-2-ylamino)-2-oxo-1,2-dihydropyridin-3-yl)-6-methyl-6,7-dihydroimidazo[4,5-f]isoindol-5(1H)-one] | 24.7 | 25 | 5 | 5.13 | 0.7 | 0.74 | 18 | 17.7 | 0.8 | – | – | 26.1 | 26.6 | 7.13 | 97.2 | – | – | – | – | – | IC50 ([11]; read-out: GTx-K299 IC50): 532 nM; IC50 ([14]; read-out: GTx-U937 IC50): > 10000 nM; IC50 ([15]; read-out: GTx-SUDHL-1 IC50): 867 nM; Mouse LM-P1 CL ([12]; Phase I only, 0.5 μM): 12.82 µL/min/mg; Papp (10−6 cm/sec) A to B [6]: 1.7 10−6 cm/sec; Papp (10−6 cm/sec) B to A [6]: 1.4 10−6 cm/sec; Efflux Ratio [6]: 0.5; IC50 [13]: > 10000 nM
8 | C[C@@H](Cc1c(F)c(F)cc(F)c1F)Nc1cc[nH]c(=O)c1-c1nc2cc3c(cc2[nH]1)C(O)N(c1cccnc1)C3=O (stereo partly drawn) [Compound 13, 7-Hydroxy-2-(2-oxo-4-4(((S)-1-(2,3,5,6-tetrafluorophenyl)propan-2-yl)amino)-1,2-dihydropyridin-3-yl)-6-(pyridin-3-yl)-6,7-dihydroimidazo[4,5-f]isoindol-5(1H)-one] | – | – | – | – | – | – | – | – | > 9.5 | < 0.2 | 1.9 | 8.77 | 79.1 | 37.8 | 18.4 | – | 6 | > 10000 | 7.89 | 87.8 | IC50 ([11]; read-out: K299 IC50): 787 nM; IC50 ([14]; read-out: U937 IC50): > 3000 nM
9 | COC1c2cc3nc(-c4c(N[C@@H](C)Cc5c(F)c(F)cc(F)c5F)cc[nH]c4=O)[nH]c3cc2C(=O)N1c1cccnc1 (stereo partly drawn) [Compound 14, 7-Methoxy-2-(2-oxo-4-(((S)-1-(2,3,5,6-tetrafluorophenyl)propan-2-yl)amino)-1,2-dihydropyridin-3-yl)-6-(pyridin-3-yl)-6,7-dihydroimidazo[4,5-f]isoindol-5(1H)-one] | 174 | – | – | 41.6 | – | – | – | – | – | – | – | < 5.8 | > 120 | 103 | 6.76 | 174 | 42 | > 10000 | < 5.8 | > 120 | –
